Tests used:
[1] = compound: C1=CC2=C(C=CC(=C2)C=C3C(=O)NC(=NCC4=CC=CS4)S3)N=C1 [R0-3306]
[2] = compound: CC(=O)O[C@H]1C(=O)[C@@]2(C)[C@H]([C@H](OC(=O)c3ccccc3)[C@]3(O)C[C@H](OC(=O)[C@H](O)[C@@H](NC(=O)c4ccccc4)c4ccccc4)C(C)=C1C3(C)C)[C@]1(OC(C)=O)CO[C@@H]1C[C@@H]2O [Paclitaxel]
[3] = compound: T1, CC(=O)c1c(C)c2cnc(Nc3ccc(N4CCN(CCOCCOCCOCCNC(=O)COc5cccc6c5C(=O)N(C5CCC(=O)NC5=O)C6=O)CC4)cn3)nc2n(C2CCCC2)c1=O [BSJ-03-123]
[4] = compound: CC(C)Nc1cc(-c2c[nH]c(C(=O)N[C@H](CO)c3cccc(Cl)c3)c2)c(Cl)cn1 [BVD523]
[5] = compound: CCC1=CN=CN=C1N2CCN(CC2)CC3=NC4=C(N3)C=C(C=C4)C(F)(F)F
[6] = compound: CCOc1cc2ncc(C#N)c(Nc3ccc(OCc4ccccn4)c(Cl)c3)c2cc1NC(=O)/C=C/CN(C)C [Neratinib/HKI272]
[7] = compound: T2, CN1CC[C@H](c2c(O)cc(O)c3c(=O)cc(-c4ccccc4Cl)oc23)[C@H](O)C1 [Flavopiridol]
[8] = compound: CO[C@@H](C)Cn1c(=O)n(C)c2cnc3ccc(-c4cncc(C(C)(C)O)c4)cc3c21
[9] = compound: NC1(C(=O)N[C@@H](CCO)c2ccc(Cl)cc2)CCN(c2nc[nH]c3nccc2-3)CC1 [AZD5363]
[10] = compound: C=CC(=O)Nc1ccc(C(=O)Nc2[nH]nc3c2CN(C(=O)N[C@H](CN(C)C)c2ccccc2)C3(C)C)cc1 [YKL-5-124]; assay: GR value, 72 h; higher = faster growth (1 = untreated, <0 = killing);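 note: breast cancer and non-malignant breast epithelial lines, nine half-log doses, viable cells counted by Hoechst and LIVE/DEAD dye imaging versus time-zero plates and DMSO controls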
[11] = compound: T1, BSJ-03-123; assay: as above
[12] = compound: CCN1CCN(Cc2ccc(Nc3ncc(F)c(-c4cc(F)c5nc(C)n(C(C)C)c5c4)n3)nc2)CC1; assay: as above
[13] = compound: CCc1cnn2c(NCc3ccc[n+]([O-])c3)cc(N3CCCC[C@H]3CCO)nc12; assay: as above
[14] = compound: CN(C)C(=O)c1cc2cnc(Nc3ccc(N4CCNCC4)cn3)nc2n1C1CCCC1 [LEE011/Ribociclib]; assay: as above
[15] = compound: CN(C)C/C=C/C(=O)Nc1ccc(C(=O)N2CCC[C@@H](Nc3ncc(Cl)c(-c4c[nH]c5ccccc45)n3)C2)cc1 [THZ531]; assay: as above
[16] = compound: CN(C)C/C=C/C(=O)Nc1ccc(C(=O)Nc2cccc(Nc3ncc(Cl)c(-c4c[nH]c5ccccc45)n3)c2)cc1 [THZ1]; assay: as above
[17] = compound: T2, Flavopiridol; assay: as above
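Throughout, for GR50, 72 h: breast cancer and non-malignant breast epithelial cell lines, Deep Dye Drop or Dye Drop imaging, nine half-log doses, GR normalized to time-zero plates and DMSO-only controls.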

MDAMB453
GR50, 72 h [1]: 5.95 µM
GR50, 72 h [2]: 0.00247 µM
GR50, 72 h [3]: 1.8 µM
GR50, 72 h [4]: 7.79 µM
GR50, 72 h [5]: 4.29 µM
GR50, 72 h [6]: 0.0361 µM
GR50, 72 h [7]: 0.134 µM
GR50, 72 h [8]: < 0.001 µM
GR50, 72 h [9]: 1.55 µM
GR value ([10]; 0.001 µM): 0.574 GR
GR value ([10]; 0.003162 µM): 0.333 GR
GR value ([10]; 0.01 µM): 0.209 GR
GR value ([10]; 0.03162 µM): 0.209 GR
GR value ([10]; 0.1 µM): 0.143 GR
GR value ([10]; 0.3162 µM): 0.0956 GR
GR value ([10]; 1 µM): 0.128 GR
GR value ([10]; 3.162 µM): 0.143 GR
GR value ([10]; 10 µM): -0.503 GR
GR value ([11]; 0.001 µM): 0.989 GR
GR value ([11]; 0.003162 µM): 0.922 GR
GR value ([11]; 0.01 µM): 0.874 GR
GR value ([11]; 0.03162 µM): 0.843 GR
GR value ([11]; 0.1 µM): 0.841 GR
GR value ([11]; 0.3162 µM): 0.699 GR
GR value ([11]; 1 µM): 0.639 GR
GR value ([11]; 3.162 µM): 0.575 GR
GR value ([11]; 10 µM): -0.011 GR
GR value ([12]; 0.001 µM): 0.908 GR
GR value ([12]; 0.003162 µM): 0.615 GR
GR value ([12]; 0.01 µM): 0.211 GR
GR value ([12]; 0.03162 µM): 0.0514 GR
GR value ([12]; 0.1 µM): 0.0343 GR
GR value ([12]; 0.3162 µM): 0.0775 GR
GR value ([12]; 1 µM): 0.0548 GR
GR value ([12]; 3.162 µM): 0.0127 GR
GR value ([12]; 10 µM): -0.787 GR
GR value ([13]; 0.0001 µM): 1.05 GR
GR value ([13]; 0.0003162 µM): 1.06 GR
GR value ([13]; 0.001 µM): 1.04 GR
GR value ([13]; 0.003162 µM): 1.03 GR
GR value ([13]; 0.01 µM): 0.645 GR
GR value ([13]; 0.03162 µM): -0.173 GR
GR value ([13]; 0.1 µM): -0.28 GR
GR value ([13]; 0.3162 µM): -0.238 GR
GR value ([13]; 1 µM): -0.242 GR
GR value ([14]; 0.001 µM): 0.717 GR
GR value ([14]; 0.003162 µM): 0.647 GR
GR value ([14]; 0.01 µM): 0.562 GR
GR value ([14]; 0.03162 µM): 0.637 GR
GR value ([14]; 0.1 µM): 0.461 GR
GR value ([14]; 0.3162 µM): 0.365 GR
GR value ([14]; 1 µM): 0.273 GR
GR value ([14]; 3.162 µM): 0.225 GR
GR value ([14]; 10 µM): 0.208 GR
GR value ([15]; 0.0001 µM): 1.1 GR
GR value ([15]; 0.0003162 µM): 0.965 GR
GR value ([15]; 0.001 µM): 0.877 GR
GR value ([15]; 0.003162 µM): 0.996 GR
GR value ([15]; 0.01 µM): 0.851 GR
GR value ([15]; 0.03162 µM): 0.38 GR
GR value ([15]; 0.1 µM): -0.333 GR
GR value ([15]; 0.3162 µM): -0.27 GR
GR value ([15]; 1 µM): -0.266 GR
GR value ([16]; 0.0001 µM): 1 GR
GR value ([16]; 0.0003162 µM): 0.935 GR
GR value ([16]; 0.001 µM): 1.04 GR
GR value ([16]; 0.003162 µM): 0.716 GR
GR value ([16]; 0.01 µM): 0.61 GR
GR value ([16]; 0.03162 µM): 0.0146 GR
GR value ([16]; 0.1 µM): -0.0991 GR
GR value ([16]; 0.3162 µM): -0.106 GR
GR value ([16]; 1 µM): -0.277 GR
GR value ([17]; 0.0001 µM): 1.06 GR
GR value ([17]; 0.0003162 µM): 1.04 GR
GR value ([17]; 0.001 µM): 0.944 GR
GR value ([17]; 0.003162 µM): 0.819 GR
GR value ([17]; 0.01 µM): 0.916 GR
GR value ([17]; 0.03162 µM): 1.05 GR
GR value ([17]; 0.1 µM): 0.671 GR
GR value ([17]; 0.3162 µM): 0.0173 GR
GR value ([17]; 1 µM): -0.186 GR

— the supplement of paper PMC9663587
